Consider 3 compounds from patent US9884839B2, “Inhibitors of 17Beta-hydroxysteroid dehydrogenases type 1 and type 2” (ElexoPharm GmbH, priority 2014, dated 2018).

The target in data set [1] is T1, mouse 17β-HSD1 (Mus musculus, UniProt P51656).
T1 construct: made in house; host or cells: HEK293 cells, transient transfection; 1,000 g supernatant of the cell lysate
T1 sequence (P51656 1-344): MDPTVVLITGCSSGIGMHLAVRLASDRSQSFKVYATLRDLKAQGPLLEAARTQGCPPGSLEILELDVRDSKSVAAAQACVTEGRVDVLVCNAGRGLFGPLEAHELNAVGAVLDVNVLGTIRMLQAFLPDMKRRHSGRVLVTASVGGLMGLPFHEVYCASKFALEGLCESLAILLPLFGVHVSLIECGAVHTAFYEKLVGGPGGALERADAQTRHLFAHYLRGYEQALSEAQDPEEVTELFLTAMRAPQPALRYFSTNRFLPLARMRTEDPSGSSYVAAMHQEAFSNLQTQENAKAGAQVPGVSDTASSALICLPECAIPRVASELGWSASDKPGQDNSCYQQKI
Put plainly: Inhibition of mouse 17β-HSD1 (recombinant, HEK293 lysate). The data set is classed as biochemical. To be noted: for inhibition at 1 µM: read-out: Inhibition @ 1 μM m17β-HSD1.

In data set [2] the target is T2, human 17β-HSD1 (Homo sapiens, UniProt P14061).
T2 construct: For the partial purification of 17β-HSD1, the cytosolic fraction was precipitated with ammonium sulfate; from tissue; host or cells: human placenta, cytosolic fraction, ammonium sulfate precipitate
T2 sequence (P14061 1-328): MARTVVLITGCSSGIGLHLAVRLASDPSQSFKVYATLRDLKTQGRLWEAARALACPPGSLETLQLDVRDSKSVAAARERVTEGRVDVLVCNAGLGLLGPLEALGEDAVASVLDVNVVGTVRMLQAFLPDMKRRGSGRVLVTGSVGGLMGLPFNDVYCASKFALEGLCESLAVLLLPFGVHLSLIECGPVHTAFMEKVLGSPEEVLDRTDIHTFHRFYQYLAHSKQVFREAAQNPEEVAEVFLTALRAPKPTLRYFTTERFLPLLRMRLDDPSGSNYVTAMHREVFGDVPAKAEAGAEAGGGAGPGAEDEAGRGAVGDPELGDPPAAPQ
The data set is described as follows: Inhibition of human 17β-HSD1 (conversion of [3H]-E1 to E2, HPLC radioflow detection). The data set is classed as biochemical. Conditions: read-out: IC50 [nM] h17β-HSD1.

Data set [3] deals with T3, rat 17β-HSD1 (Rattus norvegicus, UniProt P51657).
T3 construct: made in house; host or cells: HEK293 cells, transient transfection; 1,000 g supernatant of the cell lysate
T3 sequence (P51657 1-344): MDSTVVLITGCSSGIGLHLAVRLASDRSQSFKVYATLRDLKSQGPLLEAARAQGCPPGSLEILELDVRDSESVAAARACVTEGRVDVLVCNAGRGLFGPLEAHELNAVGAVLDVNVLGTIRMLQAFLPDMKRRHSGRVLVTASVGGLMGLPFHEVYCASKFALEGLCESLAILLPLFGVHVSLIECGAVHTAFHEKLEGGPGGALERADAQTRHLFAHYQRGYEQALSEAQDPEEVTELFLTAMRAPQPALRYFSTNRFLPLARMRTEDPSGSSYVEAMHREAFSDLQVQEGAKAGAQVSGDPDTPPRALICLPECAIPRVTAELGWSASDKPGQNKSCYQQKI
The data set is described as follows: Inhibition of rat 17β-HSD1 (recombinant, HEK293 lysate). In kind it is biochemical. To be noted: read-out: % Inhibition r17β-HSD1; for inhibition at […]: Cmpd conc. 250 nM.

The nature of data set [4]: in vitro. Conditions: human, pooled human liver S9 fraction.
The conditions of data set [5]: human liver S9, 1 mg/mL; unit not given.
Data set [6] has as its target T4, mouse 17β-HSD2 (Mus musculus, UniProt P51658).
T4 construct: The pellet fractions containing the microsomal 17β-HSD2 were used for the determination of E1 formation; from tissue; host or cells: mouse liver, microsomal fraction
T4 sequence (P51658 1-381): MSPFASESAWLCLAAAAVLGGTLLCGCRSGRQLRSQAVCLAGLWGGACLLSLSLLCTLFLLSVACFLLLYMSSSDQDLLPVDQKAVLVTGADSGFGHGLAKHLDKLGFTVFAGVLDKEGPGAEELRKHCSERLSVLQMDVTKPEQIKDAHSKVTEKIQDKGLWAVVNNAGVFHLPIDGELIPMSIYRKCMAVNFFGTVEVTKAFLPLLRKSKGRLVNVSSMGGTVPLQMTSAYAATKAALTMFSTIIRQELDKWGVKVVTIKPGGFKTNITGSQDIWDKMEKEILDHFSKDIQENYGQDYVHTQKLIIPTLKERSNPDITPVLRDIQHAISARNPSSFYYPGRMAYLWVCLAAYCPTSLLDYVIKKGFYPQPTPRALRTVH
The data set is described as follows: Inhibition of mouse 17β-HSD2 (liver microsomal fraction). The data set is classed as biochemical. Conditions: read-out: Inhibition @ 1 μM m17β-HSD2. (Liver microsomes are vesicles of endoplasmic reticulum, rich in cytochrome P450 enzymes.)

In data set [7] the target is T5, human 17β-HSD2 (Homo sapiens, UniProt P37059).
T5 construct: 17β-HSD2 was obtained from the microsomal fraction; from tissue; host or cells: human placenta, microsomal fraction
T5 sequence (P37059 1-387): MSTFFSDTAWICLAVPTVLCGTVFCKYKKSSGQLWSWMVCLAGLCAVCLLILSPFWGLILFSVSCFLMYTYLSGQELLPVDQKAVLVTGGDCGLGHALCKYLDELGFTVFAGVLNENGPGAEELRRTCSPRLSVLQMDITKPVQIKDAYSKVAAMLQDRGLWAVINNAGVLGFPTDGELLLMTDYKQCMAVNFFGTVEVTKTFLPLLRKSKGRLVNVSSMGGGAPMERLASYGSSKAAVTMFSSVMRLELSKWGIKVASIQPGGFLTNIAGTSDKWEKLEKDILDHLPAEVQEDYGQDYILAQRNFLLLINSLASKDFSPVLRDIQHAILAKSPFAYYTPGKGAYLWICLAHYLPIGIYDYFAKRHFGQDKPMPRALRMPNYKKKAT
Put plainly: Inhibition of human 17β-HSD2 (conversion of [3H]-E2 to E1). In kind it is biochemical. Conditions: read-out: IC50 [nM] h17β-HSD2.

Data set [8] has as its target T6, rat 17β-HSD2 (Rattus norvegicus, UniProt Q62730).
T6 construct: The pellet fractions containing the microsomal 17β-HSD2 were used for the determination of E1 formation; from tissue; host or cells: rat liver, microsomal fraction
T6 sequence (Q62730 1-381): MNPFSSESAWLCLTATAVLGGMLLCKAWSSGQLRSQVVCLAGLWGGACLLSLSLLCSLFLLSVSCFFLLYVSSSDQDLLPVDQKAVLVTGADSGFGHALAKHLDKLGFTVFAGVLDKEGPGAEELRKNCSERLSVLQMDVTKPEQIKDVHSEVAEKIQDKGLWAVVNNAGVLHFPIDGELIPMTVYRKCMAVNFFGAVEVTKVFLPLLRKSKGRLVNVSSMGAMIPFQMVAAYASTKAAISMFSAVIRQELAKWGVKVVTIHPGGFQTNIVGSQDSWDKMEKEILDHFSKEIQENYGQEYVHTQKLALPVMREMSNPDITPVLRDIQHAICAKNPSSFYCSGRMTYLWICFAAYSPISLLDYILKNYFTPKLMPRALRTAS
Put plainly: Inhibition of rat 17β-HSD2 (liver microsomal fraction). In kind it is biochemical. Conditions: read-out: % Inhibition r17β-HSD2.

Where [9] appears, read: human placental cytosolic enzyme, E1 500 nM, NADH, Tables 1, 4-11.

SMILES strings stand for the structures. Read-outs that look alike come from different tables or passages of the source.

Broadly, the inhibition is the share of the control response that was lost under treatment. As a reminder, the IC50 is the concentration that gives 50% inhibition. What is called half-life is the time in which the quantity being followed falls by half. Low readings indicate rapid decline, high ones slow decline. As for `COc1c(C)cc(-c2ccc(C(=O)c3c(F)ccc(O)c3F)s2)cc1C` [Compound 16, (2,6-Difluoro-3-hydroxy-phenyl)-[5-(4-methoxy-3,5-dimethyl-phenyl)-thiophen-2-yl]-methanone], the inhibition at 1 µM in data set [1] was determined as 59%; in data set [6] it was 55%. For the same compound, the IC50 in data set [2] (setting [9]) worked out at 0.9 nM; in data set [7] it was 18 nM. In addition, the inhibition at […] in data set [3] was determined as 39%; in data set [8] it was 27%. For the same compound, in data set [4], the half-life at 1 µM worked out at 8.5 min. In data set [5], this compound returned a CLint of 81.3.

As to `Cc1cc(-c2ccc(C(=O)c3c(F)ccc(O)c3F)s2)cc(C)c1O` [Compound 24, (2,6-Difluoro-3-hydroxy-phenyl)-[5-(4-hydroxy-3,5-dimethyl-phenyl)-thiophen-2-yl]-methanone], the IC50 amounted to 397 nM in data set [1] (recombinant mouse enzyme, E1 10 nM, NADPH, read-out: IC50 m17β-HSD1); 0.4 nM in data set [2]; 7 nM in data set [7]. The inhibition at […] in data set [3] came to 63%; in data set [8], 35%. The compound further had a half-life at 1 µM in data set [4] of 2.6 min. In addition, the CLint in data set [5] is reported as 272.7. The inhibition at 1 µM in data set [6] worked out at 76%.

With `COc1c(Cl)cc(-c2ccc(C(=O)c3c(F)ccc(O)c3F)s2)cc1CN1CCNCC1` [Compound 30, [5-(3-Chloro-4-methoxy-5-piperazin-1-ylmethyl-phenyl)-thiophen-2-yl]-(2,6-difluoro-3-hydroxy-phenyl)-methanone], the results for the inhibition at 1 µM in data set [1] and in data set [6] were 25% and 41%, respectively. The results for the IC50 in data set [2] (setting [9]) and in data set [7] were 4.7 nM and 26 nM, respectively. Besides, the values for the inhibition at 0.5 µM in data set [3] (Cmpd conc. 500 nM) and in data set [8] were 51% and 55%, respectively. This compound also yielded a half-life at 1 µM in data set [4] of 6.5 min. In data set [5], the CLint is 106.8.
